Source: patent US20230243815A1, “AN APPARATUS COMPRISING MICROFLUIDIC PROTEIN-BASED SENSORS AND METHODS OF USING SAME” (UNIVERSITY OF MARYLAND, BALTIMORE COUNTY, priority 2020, published 2023)

Biological target: branched-chain amino acid binding protein (Escherichia coli, UniProt P0AD96)
Assay: Binding of amino acids to branched-chain amino acid binding protein biosensor (microfluidic column sensor)
Details: binding affinity of the analyte to the branched-chain amino acid binding protein biosensor; FIG. 9
Source text: FIG. 9(A) illustrates amino acids that bind at varying affinities to a microfluidic column biosensor, where F/F0 is the fluorescence intensity ratio.
Microfluidic column sensors are also useful when the biosensor detects more than one analyte but with different binding affinities. […] This is shown in FIG. 9, where a mixture of these amino acids can be separately detected over the length of the microfluidic column.

Sequence of branched-chain amino acid binding protein (P0AD96 24-367): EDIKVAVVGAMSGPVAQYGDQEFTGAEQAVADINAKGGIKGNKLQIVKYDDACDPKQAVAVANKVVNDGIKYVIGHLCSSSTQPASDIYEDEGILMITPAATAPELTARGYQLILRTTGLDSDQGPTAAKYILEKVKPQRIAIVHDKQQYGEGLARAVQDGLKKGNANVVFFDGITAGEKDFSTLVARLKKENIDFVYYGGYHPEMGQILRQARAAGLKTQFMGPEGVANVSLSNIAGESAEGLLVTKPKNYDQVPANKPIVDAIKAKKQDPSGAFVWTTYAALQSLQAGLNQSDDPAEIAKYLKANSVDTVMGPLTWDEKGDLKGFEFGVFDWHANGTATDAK

Row | SMILES | Kd [µM]
1 | CC[C@H](C)[C@H](N)C(=O)O [isoleucine] | 68
2 | CC(C)[C@H](N)C(=O)O [valine] | 135
3 | CC(C)C[C@H](N)C(=O)O [leucine] | 58
